Test results taken from ChEMBL document CHEMBL1201862, “PubChem BioAssay data set” (2004).
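Method: 48-hour compound exposure of cells in 96-well plates, five concentrations, linear interpolation of endpoints. Abbreviation: GI50, concentration required for 50% inhibition of growth.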 Activity calls are given as the source filed them. Cut-off read from the data, not from the text of the source: active = GI50 up to about 1.1 µM and inactive = higher.

Columns and labels:
Test in all cases: inhibition of tumour cell growth, NCI panel, 48 h
[1] = test system: SW-620
[2] = test system: HL-60
[3] = test system: IGROV-1
[4] = test system: OVCAR-8
[5] = test system: SK-MEL-5
[6] = test system: SN12C
[7] = test system: LOX IMVI
[8] = test system: Malme-3M
[9] = test system: DU-145
[10] = test system: EKVX
[11] = test system: OVCAR-3
[12] = test system: SNB-19
[13] = test system: CCRF-CEM
[14] = test system: A549
[15] = test system: HCT-116
[16] = test system: MDA-MB-435
[17] = test system: A498
[18] = test system: PC-3
[19] = test system: ACHN
[20] = test system: K562
[21] = test system: TK-10
[22] = test system: HT-29
[23] = test system: M14
[24] = test system: SK-MEL-2
[25] = test system: T47D
[26] = test system: NCI-H23
[27] = test system: U-251
[28] = test system: HCT-15
[29] = test system: HCC 2998
[30] = test system: SNB-75
[31] = test system: SF-539
[32] = test system: KM12
[33] = test system: RPMI-8226
[34] = test system: SF-268
[35] = test system: UACC-257
[36] = test system: MCF7
[37] = test system: MOLT-4
[38] = test system: HOP-62
[39] = test system: SF-295
[40] = test system: COLO 205
[41] = test system: RXF 393
[42] = test system: MDA-N
[43] = test system: SK-MEL-28
[44] = test system: NCI-H460
[45] = test system: UACC-62
[46] = test system: Hs-578T
[47] = test system: NCI/ADR-RES
[48] = test system: NCI-H522
[49] = test system: UO-31
[50] = test system: CAKI-1
[51] = test system: BT-549
[52] = test system: 786-0
[53] = test system: SK-OV-3
[54] = test system: MDA-MB-231
[55] = test system: OVCAR-4
[56] = test system: OVCAR-5
[57] = test system: SR
[58] = test system: NCI-H226

Clc1cc(OCC23CC4CC(CC(C4)C2)C3)nc(OCC23CC4CC(CC(C4)C2)C3)n1
GI50 [1]: > 100 µM (inactive) | GI50 [2]: > 100 µM (inactive) | GI50 [3]: > 100 µM (inactive) | GI50 [4]: > 100 µM (inactive) | GI50 [5]: > 100 µM (inactive) | GI50 [6]: > 100 µM (inactive) | GI50 [7]: > 100 µM (inactive) | GI50 [8]: > 100 µM (inactive) | GI50 [9]: > 100 µM (inactive) | GI50 [10]: > 100 µM (inactive) | GI50 [11]: > 100 µM (inactive) | GI50 [12]: > 100 µM (inactive) | GI50 [13]: > 100 µM (inactive) | GI50 [14]: > 100 µM (inactive) | GI50 [15]: > 100 µM (inactive) | GI50 [16]: > 100 µM (inactive) | GI50 [17]: > 100 µM (inactive) | GI50 [18]: > 100 µM (inactive) | GI50 [19]: > 100 µM (inactive) | GI50 [20]: > 100 µM (inactive) | GI50 [21]: > 100 µM (inactive) | GI50 [22]: > 100 µM (inactive) | GI50 [23]: > 100 µM (inactive) | GI50 [24]: > 100 µM (inactive) | GI50 [25]: > 100 µM (inactive) | GI50 [26]: > 100 µM (inactive) | GI50 [27]: > 100 µM (inactive) | GI50 [28]: > 100 µM | GI50 [29]: > 100 µM (inactive) | GI50 [30]: > 100 µM (inactive) | GI50 [31]: > 100 µM (inactive) | GI50 [32]: > 100 µM (inactive) | GI50 [33]: > 100 µM (inactive) | GI50 [34]: > 100 µM (inactive) | GI50 [35]: > 100 µM (inactive) | GI50 [36]: > 100 µM (inactive) | GI50 [37]: > 100 µM (inactive) | GI50 [38]: > 100 µM (inactive) | GI50 [39]: 41.7 µM (inactive) | GI50 [40]: > 100 µM (inactive) | GI50 [41]: > 100 µM (inactive) | GI50 [42]: > 100 µM (inactive) | GI50 [43]: > 100 µM (inactive) | GI50 [44]: > 100 µM (inactive) | GI50 [45]: > 100 µM (inactive) | GI50 [46]: > 100 µM (inactive) | GI50 [47]: > 100 µM (inactive) | GI50 [48]: > 100 µM (inactive) | GI50 [49]: > 100 µM (inactive) | GI50 [50]: > 100 µM (inactive) | GI50 [51]: > 100 µM (inactive) | GI50 [52]: > 100 µM (inactive) | GI50 [53]: > 100 µM (inactive) | GI50 [54]: > 100 µM (inactive) | GI50 [55]: > 100 µM (inactive) | GI50 [56]: > 100 µM (inactive) | GI50 [57]: > 100 µM (inactive)

COC(=O)[C@H](Cc1ccccc1)NC(=O)N(CCNC(=O)OC(C)(C)C)c1ccccc1
GI50 [1]: > 100 µM (inactive) | GI50 [2]: > 100 µM (inactive) | GI50 [3]: > 100 µM (inactive) | GI50 [4]: > 100 µM (inactive) | GI50 [5]: > 100 µM (inactive) | GI50 [6]: > 100 µM (inactive) | GI50 [7]: > 100 µM (inactive) | GI50 [8]: > 100 µM (inactive) | GI50 [9]: > 100 µM (inactive) | GI50 [10]: > 100 µM (inactive) | GI50 [11]: > 100 µM (inactive) | GI50 [12]: > 100 µM (inactive) | GI50 [13]: > 100 µM (inactive) | GI50 [14]: > 100 µM (inactive) | GI50 [15]: > 100 µM (inactive) | GI50 [16]: > 100 µM (inactive) | GI50 [17]: > 100 µM (inactive) | GI50 [18]: > 100 µM (inactive) | GI50 [19]: > 100 µM (inactive) | GI50 [20]: > 100 µM (inactive) | GI50 [22]: > 100 µM (inactive) | GI50 [23]: > 100 µM (inactive) | GI50 [24]: > 100 µM (inactive) | GI50 [25]: 51.4 µM (inactive) | GI50 [26]: > 100 µM (inactive) | GI50 [27]: > 100 µM (inactive) | GI50 [28]: > 100 µM | GI50 [29]: > 100 µM (inactive) | GI50 [30]: > 100 µM (inactive) | GI50 [32]: > 100 µM (inactive) | GI50 [33]: > 100 µM (inactive) | GI50 [34]: > 100 µM (inactive) | GI50 [36]: > 100 µM (inactive) | GI50 [37]: > 100 µM (inactive) | GI50 [38]: > 100 µM (inactive) | GI50 [58]: > 100 µM (inactive) | GI50 [39]: > 100 µM (inactive) | GI50 [40]: > 100 µM (inactive) | GI50 [41]: 87.1 µM (inactive) | GI50 [42]: > 100 µM (inactive) | GI50 [43]: > 100 µM (inactive) | GI50 [44]: > 100 µM (inactive) | GI50 [45]: > 100 µM (inactive) | GI50 [46]: > 100 µM (inactive) | GI50 [47]: > 100 µM (inactive) | GI50 [48]: > 100 µM (inactive) | GI50 [49]: > 100 µM (inactive) | GI50 [50]: > 100 µM (inactive) | GI50 [51]: > 100 µM (inactive) | GI50 [52]: > 100 µM (inactive) | GI50 [53]: > 100 µM (inactive) | GI50 [54]: > 100 µM (inactive) | GI50 [55]: > 100 µM (inactive) | GI50 [56]: > 100 µM (inactive) | GI50 [57]: > 100 µM (inactive)

CSc1c(C(=O)Nc2ccc(Cl)cc2)c(N)n(N)c(=O)c1C#N
GI50 [1]: 95.5 µM (inactive) | GI50 [2]: 78.7 µM (inactive) | GI50 [4]: 55.2 µM (inactive) | GI50 [5]: > 100 µM (inactive) | GI50 [6]: > 100 µM (inactive) | GI50 [7]: 31.8 µM (inactive) | GI50 [8]: > 100 µM (inactive) | GI50 [9]: > 100 µM (inactive) | GI50 [10]: > 100 µM (inactive) | GI50 [11]: 48.8 µM (inactive) | GI50 [12]: > 100 µM (inactive) | GI50 [13]: 42.4 µM (inactive) | GI50 [14]: > 100 µM (inactive) | GI50 [15]: 32.6 µM (inactive) | GI50 [16]: > 100 µM (inactive) | GI50 [17]: 36 µM (inactive) | GI50 [18]: 79.8 µM (inactive) | GI50 [20]: 46.6 µM (inactive) | GI50 [21]: > 100 µM (inactive) | GI50 [22]: > 100 µM (inactive) | GI50 [23]: 51.6 µM (inactive) | GI50 [24]: > 100 µM (inactive) | GI50 [25]: 31.3 µM (inactive) | GI50 [26]: 61.5 µM (inactive) | GI50 [27]: > 100 µM (inactive) | GI50 [28]: 77.4 µM | GI50 [29]: 54.1 µM (inactive) | GI50 [30]: > 100 µM (inactive) | GI50 [31]: > 100 µM (inactive) | GI50 [32]: 45.9 µM (inactive) | GI50 [33]: 57.4 µM (inactive) | GI50 [34]: > 100 µM (inactive) | GI50 [35]: > 100 µM (inactive) | GI50 [36]: 75.3 µM (inactive) | GI50 [37]: 76.9 µM (inactive) | GI50 [58]: 89.7 µM (inactive) | GI50 [40]: > 100 µM (inactive) | GI50 [41]: > 100 µM (inactive) | GI50 [42]: > 100 µM (inactive) | GI50 [43]: > 100 µM (inactive) | GI50 [44]: > 100 µM (inactive) | GI50 [45]: 24.5 µM (inactive) | GI50 [46]: > 100 µM (inactive) | GI50 [47]: 58.1 µM (inactive) | GI50 [48]: 25.7 µM (inactive) | GI50 [49]: 31.6 µM (inactive) | GI50 [50]: 34.2 µM (inactive) | GI50 [51]: > 100 µM (inactive) | GI50 [52]: > 100 µM (inactive) | GI50 [53]: > 100 µM (inactive) | GI50 [54]: > 100 µM (inactive) | GI50 [55]: 68.5 µM (inactive) | GI50 [56]: 58.9 µM (inactive) | GI50 [57]: > 100 µM (inactive)
